Reference: patent publication US8202514B2, “Bacillus subtilis strain having antagonistic activity for controlling plant diseases” (Korea Research Institute of Chemical Technology, priority 2004, dated 2012)
Like-named read-outs stand apart in the source and are kept apart here.

Key:
[1] = test system: powdery mildew pathogen, Blumeria graminis f. sp. hordei; test: In vivo control of barley powdery mildew on barley seedlings
[2] = test system: late blight pathogen, Phytophthora infestans; assay type: in vivo
[3] = test system: gray mold pathogen, Bouytis cinerea; assay type: in vivo
[4] = test system: anthracnose pathogen, Colletotrichum orbiculare; assay type: in vivo
[5] = test system: powdery mildew pathogen, Sphaerotheca fidigenea; test: In vivo control of cucumber powdery mildew (natural infestation in greenhouse); settings: for Control value (%) The 1st Exp. cucumber powdery mildew: 1st experiment; for Control value (%) The 2nd Exp. cucumber powdery mildew: 2nd experiment
Method: The culture solution was diluted with distilled water at a ratio of 1:10, 1:25, 1:50, 1:100 and 1:200. Each diluent was mixed with 250 μg/ml of Tween 20, and sprayed to leaves of the 7th leaf stage of cucumbers.
Topseed (Greenbiotech Co., Ltd.) known as a microbial fungicide for controlling powdery mildew was diluted with distilled water at a ratio of 1:10, 1:25, 1:50, 1:100 and 1:200, and each diluent and flusilazole (Dongbu Hannong Chemical Co., Ltd.) as a positive control were sprayed to cucumber plants to prepare a comparative group. The cucumbers treated with Tween 20 solution alone were employed as a control group.
1 week after spraying, each diluent of the culture solution and comparative sample was sprayed to the target cucumbers second time. 1 week after further spraying, effect on controlling powdery mildew was assessed according to the same method as described in Example 3. The cucumbers were allowed to be infested naturally from a resident powdery mildew pathogen, Sphaerotheca fidigenea in a greenhouse.

SMILES: CCCCNC(=O)n1c(NC(=O)OC)nc2ccccc21 [Benomyl, benomyl]
- Control value (%) Barley powdery mildew ([1]; 1 μg/ml): 52%
- Control value (%) Barley powdery mildew ([1]; 100 μg/ml): 100%

SMILES: N#Cc1c(Cl)c(Cl)c(Cl)c(C#N)c1Cl [Chlrothalonil, chlrothalonil]
- Control value (%) Tomato late blight ([2]; 50 μg/ml): 89%
- Control value (%) Tomato late blight ([2]; 100 μg/ml): 100%

SMILES: CN(C)S(=O)(=O)N(SC(F)(Cl)Cl)c1ccccc1 [Dichlofluanid, dichlofluanid]
- Control value (%) Tomato gray mold ([3]; 40 μg/ml): 86%
- Control value (%) Tomato gray mold ([3]; 80 μg/ml): 97%

SMILES: N#Cc1sc2c(=O)c3ccccc3c(=O)c=2sc1C#N [Dithianon, dithianon]
- Control value (%) Cucumber anthracnose ([4]; 10 μg/ml): 80%
- Control value (%) Cucumber anthracnose ([4]; 100 μg/ml): 100%

SMILES: C[Si](Cn1cncn1)(c1ccc(F)cc1)c1ccc(F)cc1 [Flusilazole, flusilazole]
- Control value (%) The 1st Exp. cucumber powdery mildew ([5]; 10 μg/ml): 97%
- Control value (%) The 2nd Exp. cucumber powdery mildew ([5]; 10 μg/ml): 97%
- Control value (%) The 1st Exp. cucumber powdery mildew ([5]; 30 μg/ml): 99%
- Control value (%) The 2nd Exp. cucumber powdery mildew ([5]; 30 μg/ml): 99%
